Assay results as given in US20260027073A1, “USE OF SMALL-MOLECULE COMPOUND HAVING NAPHTHYLAMINE STRUCTURE” (HANGZHOU PHECDAMED CO., LTD., priority 2023, published 2026).

Key:
CUP model mice = assay: Multiple sclerosis CUP model; format: in vivo, C57BL/6; conditions: for number of open arm entries (elevated cross maze) / walking distance (elevated cross maze) / open arm time (elevated cross maze) / number of crossing over the platform (water maze): 30 mg/kg oral gavage; for number of open arm entries (elevated cross maze): FIG. 86; for walking distance (elevated cross maze): FIG. 87; for open arm time (elevated cross maze): FIG. 88; for number of crossing over the platform (water maze): FIG. 89
Method: After one week of adaptive feeding in 7-8 weeks C57BL/6 female […], they were randomly divided into four groups according to their body weights: the normal control group (Control, 0.5% CMC-Na treatment by oral gavage, n=8), the model group (model, 0.5% CMC-Na treatment by oral gavage, n=8), TJ01-013 treatment group (TJ01-013, 30 mg/kg TJ01-013 by oral gavage, n=8), I-14-1 treatment group (I-14-1, oral gavage 30 mg/kg I-14-1, n=8). The normal control group was fed with the basal diet throughout for 12 weeks, and the model group, TJ01-013 treatment group, and I-14-1 treatment group were fed with 0.2% CUP diet throughout. All groups were administered 5 ml/kg in a volume of 5 ml/kg for a total of 12 weeks starting 6 weeks after modeling.
The elevated cross maze consisted of two open arms (35 cm×6 cm) and two closed arms (35 cm×6 cm×14 cm), with the middle area (6 cm×6 cm) and a height of 70 cm above the ground, and the mice were placed in the middle area facing the open arms, and were active for 5 min in a 50 cm×50 cm open field prior to the start of the test. During the test, the activity time, the activity distance and the number of open arm entries in the mice were counted. Each mouse was wiped with 75% alcohol on the maze after the test.
The mice were placed in a basin with a diameter of 70 cm and a height of 30 cm, and the water temperature was about 22-24° C. The basin was divided into four quadrants, and a platform with a diameter of 5 cm was placed in the target quadrant, which was placed 1 cm below the surface of the water. The mice were acclimatized for 1 day before the official test and learned for 4 days, during learning, the mice entered the water in the direction of facing the wall of the basin, and were given 60 s to search for the platform, or else were guided to learn for 30 s on the platform, and the time that the mice found the platform during learning was recorded. The platform was withdrawn on the day of the test, and the number of crossing over the platform after entering from the opposite quadrant of the target quadrant in mice was recorded to determine the spatial learning and memory ability of the mice.

[1] = test system: chronic epilepsy mouse model; assay: PTZ chronic epilepsy model; format: in vivo, ICR mice; conditions: for seizure grade (Racine grading) / latency in platform jumping (Step-down) experiment / Step-through latency, dark avoidance experiment: 30 mg/kg oral gavage, 21 days; for seizure grade (Racine grading): FIG. 63; for latency in platform jumping (Step-down) experiment: FIG. 64; for Step-through latency, dark avoidance experiment: FIG. 65; for serum IL-1β level / serum TNF-α level: 30 mg/kg, to a certain degree, FIG. 66
Method: Clean grade 8-10 week old male ICR mice were selected for the preparation of a chronic epilepsy mouse model. They were randomly divided into four groups: normal control group (Control, 0.5% CMC-Na treatment by oral gavage, n=8), model group (Model, 0.5% CMC-Na treatment by oral gavage, n=8), TJ01-013 treatment group (TJ01-013, 30 mg/kg TJ01-013 by oral gavage, n=8), I-14-1 treatment group (I-14-1, 30 mg/kg I-14-1 by oral gavage, n=8). Starting from the first day of the experiment, at 10-11 am every day, mice in all groups except the normal control group were injected intraperitoneally with PTZ 40 mg/kg and the normal control group was injected with the corresponding volume of saline for a total of 21 days. The drug administration treatment was started right after the start of modeling, and the drug was administered once a day for a total of 21 days, and the corresponding tests were performed at the end of the drug administration.
Epileptic seizure grading standard is based on Racine grading: Grade 0, no convulsive response, manifested as normal behavior state; Grade I, facial muscle spasm, manifested as rhythmic chewing, blinking, moving whiskers, etc.; Grade II, neck muscle spasm, manifested as head nodding with or without tail erecting; Grade III, forelimb lifting, clonic or rhythmic twitching; Grade IV, hindlimb tonic or standing tonic; Grade V, generalized clonic, standing tonic and falling down; loss of balance.
The platform jumping experiment is an experimental method designed to utilize the habit of experimental mice to jump down from a high place immediately to explore the surrounding environment. The experimental mice are placed on a high platform, and at the moment of jumping down, they are given electrical stimulation. Then in order to avoid the electric stimulus, the animals will not jump off the platform, while the mice that are not good at learning and memorizing will maintain their habit and jump off the platform. At the end of each round of the experiment, 75% alcohol were sprayed for wiping to avoid odor interference between the mice. The experiment was conducted after the administration, and the experimental device was a cubic box with a (10 cm×10 cm) electric fence at the bottom and a height of 30 cm, with a platform of 3.2 cm in height and 4.2 cm in diameter inside. The experimental steps and procedures of this experiment were divided into: (1) The mice were put into the bottom of the experimental device, which was not energized at this time, so that they were free to explore and adapt to the environment for 10 s. (2) The mice were placed on the high platform inside the experimental device, and the time at which the mice jumped off the high platform was recorded as Initial latency, and were given electrical stimulation (50 Hz, 20 V, 5 s). (3) After 24 h, the mice were placed on the platform again, and the time at which they jumped off the platform was recorded as Step-down latency. The residence time of the mice on the high platform should not exceed 60 s, and the time exceeding 60 s was still recorded as 60 s.
The step through dark avoidance experiment is an experimental method designed to utilize the tendency of mice to move around in dark environments more than in bright environments. The experimental mice are placed in a bright environment of a bright and dark environment connecting device, and then electrically stimulated when they enter the dark environment. Then in order to avoid the electric stimulus, they will move into the light environment, while mice that are not good at learning and memorizing will maintain their habit and enter the dark environment. At the end of each round of the experiment, 75% alcohol were sprayed for wiping to avoid odor interference between mice. This experiment was conducted at the end of the administration. […]

[2] = In vitro liver microsomal stability test
Method: Ketanserin was selected as the reference compound. The specific method was as follows:
0.1 M K3PO4 (pH 7.4) buffer and 3×NADPH stock solution (6 mM, 5 mg/mL) were configured and preheated in a 37° C. water bath; configuration of the test compounds and the control compounds (spiking solution): adding 5 μL of the compound stock solution ([…]) into 95 μL of acetonitrile; configuration of 1.5 μM spiking solution in microsomes (0.75 mg/mL): adding 1.5 μL of spiking solution and 18.75 μL of liver microsomal solution (20 mg/mL) into 479.75 μL of K3PO4 buffer; adding 30 μL of spiking solution in microsomes into the multiwell plate, and incubating at 37° C. for 5 min; adding 15 μL of NADPH storage solution into each well to start to react, and timing; adding 150 μL of acetonitrile solution containing IS at 0 min, 5 min, 15 min, 30 min, and 45 min, respectively, stopping the reaction; oscillating for 10 min, and then centrifuging at 6,000 rpm for 15 min; taking 80 μL of supernatant from each well for LC/MS detection, and calculating T1/2.

| liver microsomal stability (elimination half-life T1/2) ([2]; in vitro mouse or human liver microsomal environment, FIG. 19) | Structure (SMILES) | number of open arm entries (elevated cross maze) (CUP model mice) | walking distance (elevated cross maze) (CUP model mice) | open arm time (elevated cross maze) (CUP model mice) | number of crossing over the platform (water maze) (CUP model mice) | seizure grade (Racine grading) [1] | latency in platform jumping (Step-down) experiment [1] | Step-through latency, dark avoidance experiment [1] | serum IL-1β level [1] | serum TNF-α level [1] | treatment of TJ01-013 compared with I-14-1 (CUP model mice; per readout of the block) | liver microsomal stability (elimination half-life T1/2) ([2]; microsomes) | treatment effect of TJ01-013 compared with I-14-1 ([1]; both 30 mg/kg, per readout of the block) |
| --- | --- | --- | --- | --- | --- | --- | --- | --- | --- | --- | --- | --- | --- |
| – | O=C(O)C[S+]([O-])c1cc(NS(=O)(=O)c2ccc(C(F)(F)F)cc2)c2ccccc2c1O (stereo not shown) [I-14-1] | significantly reduced | reduced | significantly decreased | increased | reduce the seizure grade | increase the Initial latency to a certain degree | increase the latency to a certain extent | reduce | reduce | – | – | – |
| – | O=C(O)C[S+]([O-])c1cc(NS(=O)(=O)c2ccc(Br)cc2)c2ccccc2c1O (stereo not shown) [I-1] | significantly reduced | reduced | significantly decreased | increased | significant difference in reducing seizures | increase the Initial latency to a certain degree | increase the latency to a certain extent | reduce | reduce | significantly better | superior liver microsomal stability | significantly better |
| unstable | O=C(O)CSc1cc(NS(=O)(=O)c2ccc(Br)cc2)c2ccccc2c1O [UMI-77, reference compound] | – | – | – | – | – | – | – | – | – | – | – | – |
